Tests used:
[1] = system: ERK phosphorylation; test: Analysis of ERK phosphorylation (Alphascreen SureFire Phospho-ERK 1/2); type: cell-based, human and mouse; conditions: cells treated for 1 h; human melanoma cells, human and mouse colon cancer cells; read-out: Minimum concentration (nM) required for ≧80% inhibition of pERK
Method: This assay was carried out with human melanoma cells, human and mouse colon cancer cells. Cells were treated for 1 h with various concentrations of test compounds. ERK phosphorylation analysis was performed using the Alphascreen SureFire Phospho-ERK 1/2 Kit (Perkin Elmer), by following the manufacturer's instructions. % inhibition of ERK phosphorylation was determined as: 100−{(RFU test−RFU lysis buffer control)/(RFU vehicle treated control−RFU lysis buffer control)}×100. Percentage inhibition at concentrations of 0.01 nM, 0.03 nM, 0.1-0.9 nM, 1 nM to 3 nM, 4-100 nM, and >100 nM, for the stated examples is setworth here. The percentage inhibition at the above depicted concentrations for the compounds stated are given in the following groups.

[2] = system: MEK phosphorylation (S218 and S222); test: Analysis of B-Raf-mediated MEK phosphorylation (Alphascreen SureFire Phospho-MEK); type: cell-based, human; conditions: read-out: % Inhibition of MEK phosphorylation, human melanoma cells, 1 h, read-out: % Inhibition of MBK phosphorylation; for inhibition at 0.001 µM: 1 nM; for inhibition at 0.01 µM: 10 nM; for inhibition at 0.1 µM: 100 nM
Method: This assay was carried out with human melanoma cells. Cells were treated for 1 h with various concentrations of test compounds. MEK phosphorylation (S218 and S222) analysis was performed using the Alphascreen SureFire Phospho-MEK Kit (Perkin Elmer), by following the manufacturer's instructions. % inhibition of […] phosphorylation was determined as: 100−{(RFU test−RFU lysis buffer control)/(RFU vehicle treated control−RFU lysis buffer control)}×100.

Row | Structure (SMILES) | IC80 [1] [nM] | inhibition at 0.001 µM [2] [%] | inhibition at 0.01 µM [2] [%] | inhibition at 0.1 µM [2] [%]
1 | Cc1c(=O)n(C)c(Nc2ccc(I)cc2F)c2c(=O)[nH]c(=O)n(-c3cccc(C(=O)NC4CC4)c3)c12 [Compound 2, N-cyclopropyl-3-(5-((2-fluoro-4-iodophenyl)amino)-6,8-dimethyl-2,4,7-trioxo-3,4,6,7-tetrahydropyrido[4,3-d]pyrimidin-1(2H)-yl)benzamide] | 0.01 | 72.2 | 93.4 | 96.4
2 | CNC(=O)COc1cccc(-n2c(=O)[nH]c(=O)c3c(Nc4ccc(I)cc4F)n(C)c(=O)c(C)c32)c1 [Compound 5, 2-(3-(5-((2-fluoro-4-iodophenyl)amino)-6,8-dimethyl-2,4,7-trioxo-3,4,6,7-tetrahydropyrido[4,3-d]pyrimidin-1(2H)-yl)phenoxy)-N-methylacetamide] | 0.1 to 0.9 | 93.9 | 97.4 | 97.4
3 | Cc1c(=O)n(C)c(Nc2ccc(I)cc2F)c2c(=O)[nH]c(=O)n(-c3cccc(OCC(N)=O)c3)c12 [Compound 16, 2-(3-(5-((2-fluoro-4-iodophenyl)amino)-6,8-dimethyl-2,4,7-trioxo-3,4,6,7-tetrahydropyrido[4,3-d]pyrimidin-1(2H)-yl)phenoxy)acetamide] | 1 to 3 | 89.2 | 93.3 | 94.7
4 | Cc1c(=O)n(C)c(Nc2ccc(I)cc2F)c2c(=O)n(C3CC3)c(=O)n(-c3cccc(CC(=O)N(C)C)c3)c12 [Compound 29, 2-(3-(3-cyclopropyl-5-((2-fluoro-4-iodophenyl)amino)-6,8-dimethyl-2,4,7-trioxo-3,4,6,7-tetrahydropyrido[4,3-d]pyrimidin-1(2H)-yl)phenyl)-N,N-dimethylacetamide] | 0.1 to 0.9 | 52.9 | 72.9 | 76.4
5 | Cc1c(=O)n(C)c(Nc2ccc(I)cc2F)c2c(=O)n(C)c(=O)n(-c3cccc(CC(=O)NC4CC4)c3)c12 [Compound 58, N-cyclopropyl-2-(3-(5-((2-fluoro-4-iodophenyl)amino)-3,6,8-trimethyl-2,4,7-trioxo-3,4,6,7-tetrahydropyrido[4,3-d]pyrimidin-1(2H)-yl)phenyl)acetamide] | 1 to 3 | – | – | –
6 | CCn1c(=O)c2c(Nc3ccc(I)cc3F)n(C)c(=O)c(C)c2n(-c2cccc(CC(=O)NC3CC3)c2)c1=O [Compound 59, N-cyclopropyl-2-(3-(3-ethyl-5-((2-fluoro-4-iodophenyl)amino)-6,8-dimethyl-2,4,7-trioxo-3,4,6,7-tetrahydropyrido[4,3-d]pyrimidin-1(2H)-yl)phenyl)acetamide] | 1 to 3 | – | – | –
7 | CNC(=O)COc1cccc(-n2c(=O)n(C)c(=O)c3c(Nc4ccc(I)cc4F)n(C)c(=O)c(C)c32)c1 [Compound 60, 2-(3-(5-((2-fluoro-4-iodophenyl)amino)-3,6,8-trimethyl-2,4,7-trioxo-3,4,6,7-tetrahydropyrido[4,3-d]pyrimidin-1(2H)-yl)phenoxy)-N-methylacetamide] | 0.1 to 0.9 | – | – | –
8 | CCn1c(=O)c2c(Nc3ccc(I)cc3F)n(C)c(=O)c(C)c2n(-c2cccc(CCC(N)=O)c2)c1=O [Compound 61, 3-(3-(3-ethyl-5-((2-fluoro-4-iodophenyl)amino)-6,8-dimethyl-2,4,7-trioxo-3,4,6,7-tetrahydropyrido[4,3-d]pyrimidin-1(2H)-yl)phenyl)propanamide] | 1 to 3 | – | – | –
9 | CCn1c(=O)c2c(Nc3ccc(I)cc3F)n(C)c(=O)c(C)c2n(-c2cccc(C(=O)NC3CC3)c2)c1=O [Compound 62, N-cyclopropyl-3-(3-ethyl-5-((2-fluoro-4-iodophenyl)amino)-6,8-dimethyl-2,4,7-trioxo-3,4,6,7-tetrahydropyrido[4,3-d]pyrimidin-1(2H)-yl)benzamide] | 4 to 100 | – | – | –
10 | Cc1c(=O)n(C)c(Nc2ccc(I)cc2F)c2c(=O)n(C)c(=O)n(-c3cccc(C(=O)N4CCOCC4)c3)c12 [Compound 63, 5-((2-fluoro-4-iodophenyl)amino)-3,6,8-trimethyl-1-(3-(morpholine-4-carbonyl)phenyl)pyrido[4,3-d]pyrimidine-2,4,7(1H,3H,6H)-trione] | 1 to 3 | – | – | –
11 | Cc1c(=O)n(C)c(Nc2ccc(I)cc2F)c2c(=O)n(C)c(=O)n(-c3cccc(C(=O)N4CCS(=O)(=O)CC4)c3)c12 [Compound 65, 1-(3-(1,1-dioxidothiomorpholine-4-carbonyl)phenyl)-5-((2-fluoro-4-iodophenyl)amino)-3,6,8-trimethylpyrido[4,3-d]pyrimidine-2,4,7(1H,3H,6H)-trione] | 0.1 to 0.9 | – | – | –
12 | CCn1c(=O)c2c(Nc3ccc(I)cc3F)n(C)c(=O)c(C)c2n(-c2cccc(C(=O)N3CCS(=O)(=O)CC3)c2)c1=O [Compound 66, 1-(3-(1,1-dioxidothiomorpholine-4-carbonyl)phenyl)-3-ethyl-5-((2-fluoro-4-iodophenyl)amino)-6,8-dimethylpyrido[4,3-d]pyrimidine-2,4,7(1H,3H,6H)-trione] | 0.01 | – | – | –
13 | CCn1c(=O)c2c(Nc3ccc(I)cc3F)n(C)c(=O)c(C)c2n(-c2cccc(CC(=O)N(C)C)c2)c1=O [Compound 67, 2-(3-(3-ethyl-5-((2-fluoro-4-iodophenyl)amino)-6,8-dimethyl-2,4,7-trioxo-3,4,6,7-tetrahydropyrido[4,3-d]pyrimidin-1(2H)-yl)phenyl)-N,N-dimethylacetamide] | 0.1 to 0.9 | – | – | –
14 | Cc1c(=O)n(C)c(Nc2ccc(I)cc2F)c2c(=O)n(C)c(=O)n(-c3cccc(CCC(N)=O)c3)c12 [Compound 68, 3-(3-(5-((2-fluoro-4-iodophenyl)amino)-3,6,8-trimethyl-2,4,7-trioxo-3,4,6,7-tetrahydropyrido[4,3-d]pyrimidin-1(2H)-yl)phenyl)propanamide] | 1 to 3 | – | – | –
15 | Cc1c(=O)n(C)c(Nc2ccc(I)cc2F)c2c(=O)n(C(C)C)c(=O)n(-c3cccc(C(=O)NC4CC4)c3)c12 [Compound 69, N-cyclopropyl-3-(5-((2-fluoro-4-iodophenyl)amino)-3-isopropyl-6,8-dimethyl-2,4,7-trioxo-3,4,6,7-tetrahydropyrido[4,3-d]pyrimidin-1(2H)-yl)benzamide] | > 100 | – | – | –
16 | Cc1c(=O)n(C)c(Nc2ccc(I)cc2F)c2c(=O)n(C3COC3)c(=O)n(-c3cccc(OCC(N)=O)c3)c12 [Compound 71, 2-(3-(5-((2-fluoro-4-iodophenyl)amino)-6,8-dimethyl-3-(oxetan-3-yl)-2,4,7-trioxo-3,4,6,7-tetrahydropyrido[4,3-d]pyrimidin-1(2H)-yl)phenoxy)acetamide] | 4 to 100 | – | – | –
17 | Cc1c(=O)n(C)c(Nc2ccc(I)cc2F)c2c(=O)n(C(F)F)c(=O)n(-c3cccc(C(=O)NC4CC4)c3)c12 [Compound 72, N-cyclopropyl-3-(3-(difluoromethyl)-5-((2-fluoro-4-iodophenyl)amino)-6,8-dimethyl-2,4,7-trioxo-3,4,6,7-tetrahydropyrido[4,3-d]pyrimidin-1(2H)-yl)benzamide] | 4 to 100 | – | – | –
18 | Cc1c(=O)n(C)c(Nc2ccc(I)cc2F)c2c(=O)n(CC(O)CO)c(=O)n(-c3cccc(C(=O)NC4CC4)c3)c12 (stereo not shown) [Compound 73, N-cyclopropyl-3-(3-(2,3-dihydroxypropyl)-5-((2-fluoro-4-iodophenyl)amino)-6,8-dimethyl-2,4,7-trioxo-3,4,6,7-tetrahydropyrido[4,3-d]pyrimidin-1 (2H)-yl)benzamide] | 4 to 100 | – | – | –
19 | Cc1c(=O)n(C)c(Nc2ccc(I)cc2F)c2c(=O)n(CC(=O)O)c(=O)n(-c3cccc(C(=O)NC4CC4)c3)c12 [Compound 74, 2-(1-(3-(cyclopropylcarbamoyl)phenyl)-5-((2-fluoro-4-iodophenyl)amino)-6,8-dimethyl-2,4,7-trioxo-1,2,6,7-tetrahydropyrido[4,3-d]pyrimidin-3(4H)-yl)acetic acid] | > 100 | – | – | –
20 | Cc1c(=O)n(C)c(Nc2ccc(I)cc2F)c2c(=O)n(C)c(=O)n(-c3cccc([C@@H](O)C(N)=O)c3)c12 [Compound 75, (R)-2-(3-(5-((2-fluoro-4-iodophenyl)amino)-3,6,8-trimethyl-2,4,7-trioxo-3,4,6,7-tetrahydropyrido[4,3-d]pyrimidin-1(2H)-yl)phenyl)-2-hydroxyacetamide] | 1 to 3 | – | – | –
21 | Cc1c(=O)n(C)c(Nc2ccc(I)cc2F)c2c(=O)n(C)c(=O)n(-c3cccc([C@H](O)C(N)=O)c3)c12 [Compound 76, (S)-2-(3-(5-((2-fluoro-4-iodophenyl)amino)-3,6,8-trimethyl-2,4,7-trioxo-3,4,6,7-tetrahydropyrido[4,3-d]pyrimidin-1(2H)-yl)phenyl)-2-hydroxyacetamide] | 4 to 100 | – | – | –
22 | Cc1c(=O)n(C)c(Nc2ccc(I)cc2F)c2c(=O)n(C)c(=O)n(-c3cccc(C4(C(N)=O)CC4)c3)c12 [Compound 79, 1-(3-(5-((2-fluoro-4-iodophenyl)amino)-3,6,8-trimethyl-2,4,7-trioxo-3,4,6,7-tetrahydropyrido[4,3-d]pyrimidin-1(2H)-yl)phenyl)cyclopropanecarboxamide] | 4 to 100 | – | – | –

— US9428499B2, “Heterocyclyl compounds as MEK inhibitors” (LUPIN LIMITED, priority 2012, dated 2016)
